Reference: US8476198B2, “Fungicidal composition” (Valent BioSciences Corporation, priority 2009, dated 2013)
Counter-ions that a name gives are not always drawn.

Columns and labels:
[1] = system: cotton seedlings; test: Pouch assay: main root length of cotton seedlings from treated seeds; format: in vivo; details: for Root Length (cm): 6 day-old cotton seedlings
Procedure: Seeds of cotton were treated with PESA salt and/or triadimenol (BAYTAN® 30 Flowable Fungicide, Bayer Crop Science, RTP, NC USA). These were assayed in the pouch assay as described above.

[2] = system: Fusarium solani f. sp. pisi; test: Seed treatment effect against Fusarium solani f. sp. pisi (Fusarium root rot of pea); format: in vivo, Fusarium solani f. sp. pisi on pea; details: 16 days
Procedure: Seed treatment effect against Fusarium solani f. sp. pisi (Fusarium root rot of pea)
PESA and metconazole were diluted with DMSO respectively and mixed with each other to obtain the desired material mixture. Then, this suspension was applied to pea seeds. The PESA solution and the metconazole solution were applied to seeds respectively for control, and DMSO for untreated control. The seeds were dried and planted in soil that was inoculated with Fusarium solani f. sp. pisi. After growing at 20-24° C. in a greenhouse, for 16 days, symptoms were investigated and the frequency of disease and % control were calculated. The fungicide interactions in the combinations are calculated according to […] formula: E=X+Y−(X*Y)/100 • X=% action by active ingredient A using P ppm of active ingredient • Y=% action by active ingredient B using Q ppm of active ingredient • E=expected % action by active ingredients A and B using P and Q ppm of active ingredients If the action actually observed (O) is greater than the expected action (E), than the action of the combination is super-additive, i.e. there is a synergistic effect. In mathematical terms, synergism corresponds to a value of more than 100 for the ratio of O/E, said ratio O/E of less than 100 signals a loss of activity compared to the expected activity. Synergy Effect=(Observed/Expected)*100

O=C(O)CCC(=O)NCCc1ccccc1 [PESA salt]
Root Length (cm) ([1]; 25 g ai PESA salt/100 lbs. of seed, triadimenol 0): 14.8 cm
Root Length (cm) ([1]; 50 g ai PESA salt/100 lbs. of seed, triadimenol 0): 14.3 cm
Effect of adding PESA salt on the fungicide's negative effect on cotton root growth ([1]; cotton seed treatment, conclusion in words from Table 2): protects or safens cotton from the negative effects of the fungicide on root growth

O=C(O)CCC(=O)NCCc1ccccc1 [PESA, N-(2-phenylethyl)succinamic acid]
Observed action (% control) ([2]; PESA 2 gai/100 kg seed, inoculated soil): 0 % control
Observed action (% control) ([2]; PESA 10 gai/100 kg seed, inoculated soil): 9 % control

CC(C)(C)C(O)C(Oc1ccc(Cl)cc1)n1cncn1 (stereo not drawn) [Triadimenol, triadimenol, reference compound]
Root Length (cm) ([1]; triadimenol 28.2 g ai/100 lbs. of seed, 0 g ai PESA salt): 12.8 cm
Root Length (cm) ([1]; triadimenol 56.4 g ai/100 lbs. of seed, 0 g ai PESA salt): 12.3 cm

CC1(C)CCC(Cc2ccc(Cl)cc2)C1(O)Cn1cncn1 (stereo not drawn) [Metconazole, metconazole, reference compound]
Observed action (% control) ([2]; metconazole 0.2 gai/100 kg seed): 55 % control
Observed action (% control) ([2]; metconazole 1 gai/100 kg seed): 73 % control
